US20070270436A1, “NOVEL AMINO- AND IMINO-ALKYLPIPERAZINES” (Recordati Ireland Limited, priority 2006, published 2007)

Biological target: T1, human 5HT1A-serotonergic receptor (Homo sapiens, UniProt P08908)
T1 construct: expressed in transfected cells; host or cells: HeLa (human), stably transfected; membranes
T1 sequence (P08908 1-422): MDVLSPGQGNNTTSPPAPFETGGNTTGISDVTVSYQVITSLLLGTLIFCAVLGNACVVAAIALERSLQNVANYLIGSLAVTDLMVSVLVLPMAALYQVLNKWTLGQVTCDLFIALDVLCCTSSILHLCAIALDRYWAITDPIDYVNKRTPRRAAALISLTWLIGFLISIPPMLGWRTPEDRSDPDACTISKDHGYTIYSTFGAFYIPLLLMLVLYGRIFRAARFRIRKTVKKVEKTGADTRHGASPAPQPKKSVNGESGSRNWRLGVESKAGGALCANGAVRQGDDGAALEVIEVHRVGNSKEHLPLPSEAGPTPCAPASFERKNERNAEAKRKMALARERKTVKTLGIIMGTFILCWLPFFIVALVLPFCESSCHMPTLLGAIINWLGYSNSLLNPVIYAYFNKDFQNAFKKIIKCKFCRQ
Assay: Radioligand binding to recombinant 5-HT1A receptor ([3H]8-OH-DPAT, HeLa cell membranes)
Conditions: 1 nM [3H]8-OH-DPAT; Ki from IC50 by the Cheng equation; read-out: Ki (nM), binding affinity for 5HT1A receptor
Protocol: Genomic clone G-21 encoding the human 5HT1A-serotonergic receptor was stably transfected in a human cell line (HeLa). HeLa cells were grown as monolayers in Dulbecco's modified Eagle medium (DMEM), containing 10% fetal bovine serum and gentamycin (100 μg/ml) at 37° C. in a humidified atmosphere of 5% CO2 and air. The cells were detached from the growth flask at 95% confluence by a cell scraper and were lysed in cold 5 mM Tris and 5 mM EDTA buffer (pH 7.4). The homogenates were centrifuged at 40000×g×20 minutes and the pellets were resuspended in a small volume of cold 5 mM Tris and 5 mM EDTA buffer (pH 7.4) and immediately frozen and stored at −70° C. until use. On the day of experiment, the cell membranes were resuspended in incubation buffer: 50 mM Tris (pH 7.4), 2.5 mM MgCl2, 10 μM pargyline (Fargin et al., Nature 335, 358-360, 1988). The membranes were incubated in a final volume of 0.32 ml for 30 minutes at 30° C. with 1 nM [^3H]8-OH-DPAT, in the absence or presence of the test compounds. Non-specific binding was determined in the presence of 10 μM 5-HT. Incubation was stopped by addition of cold Tris buffer and rapid filtration through UniFilter GF/C plate.
The affinity of the tested compounds was evaluated as inhibition of specific binding of the radioligand to 5-HT1A receptor (IC50) by using the non-linear curve-fitting program Allfit (De Lean et al., Am. J. Physiol. 235, E97-E102 (1978)). The IC50 value was converted to an affinity constant (Ki) by the equation of Cheng et al., Biochem. Pharmacol. 22, 3099-3108 (1973).

Point of comparison: COc1ccc(Br)c(CN2CCN(CCC(c3ccccc3F)C(N)C3CCCCC3)CC2)c1 (stereo not drawn) [Example 43, 4-[4-(2-Bromo-5-methoxybenzyl)piperazin-1-yl]-1-cyclohexyl-2-(2-fluorophenyl)butylamine], Ki 0.3 nM. Against it:
- CON=C(C)C(CCN1CCN(c2cccc3c2OCCO3)CC1)c1ccccc1F (mixture of isomers) [Example 28, 5-[4-(2,3-Dihydrobenzo[1,4]dioxin-5-yl)piperazin-1-yl]-3-(2-fluorophenyl)-pentan-2-one O-methyloxime] — 4.4-fold higher, 1.33 nM
- COc1ccccc1N1CCN(CC[C@@H](c2ccccc2F)[C@H](N)C2CCCCC2)CC1 (racemic) [Example 5a, (RS,SR)-1-Cyclohexyl-2-(2-fluorophenyl)-4-[4-(2-methoxyphenyl)-piperazin-1-yl]butylamine] — 1.6-fold higher, 0.48 nM
- COc1ccccc1N1CCN(CC[C@H](c2ccccc2F)[C@H](N)C2CCCCC2)CC1 (racemic) [Example 5b, (RS,RS)-1-Cyclohexyl-2-(2-fluorophenyl)-4-[4-(2-methoxyphenyl)-piperazin-1-yl]butylamine] — 2.6-fold higher, 0.77 nM
- COc1ccccc1N1CCN(CC[C@H](c2ccccc2F)[C@H](NC(C)=O)C2CCCCC2)CC1 (racemic) [Example 9, N-{(RS,RS)-1-Cyclohexyl-2-(2-fluorophenyl)-4-[4-(2-methoxyphenyl)-piperazin-1-yl]butyl}acetamide] — 4.7-fold higher, 1.4 nM
- COc1ccccc1N1CCN(CC[C@@H](c2ccccc2F)[C@H](NC(C)C)C2CCCCC2)CC1 (racemic) [Example 12, (RS,SR)-{1-Cyclohexyl-2-(2-fluorophenyl)-4-[4-(2-methoxyphenyl)-piperazin-1-yl]butyl}isopropylamine] — 3.3-fold higher, 0.99 nM
- COc1ccccc1N1CCN(CC[C@@H](c2ccccc2F)[C@H](NCc2ccco2)C2CCCCC2)CC1 (racemic) [Example 14, {(RS,SR)-1-Cyclohexyl-2-(2-fluorophenyl)-4-[4-(2-methoxyphenyl)-piperazin-1-yl]butyl}furan-2-ylmethylamine] — within 1.5-fold, 0.42 nM
- COc1ccccc1N1CCN(CC[C@@H](c2ccccc2F)[C@H](NC(N)=O)C2CCCCC2)CC1 (racemic) [Example 18, {(RS,SR)-1-Cyclohexyl-2-(2-fluorophenyl)-4-[4-(2-methoxyphenyl)-piperazin-1-yl]butyl}urea] — 6.1-fold higher, 1.84 nM
- CNC(=O)N[C@H](C1CCCCC1)[C@@H](CCN1CCN(c2ccccc2OC)CC1)c1ccccc1F (racemic) [Example 19, 1-{(RS,SR)-1-Cyclohexyl-2-(2-fluorophenyl)-4-[4-(2-methoxyphenyl)-piperazin-1-yl]butyl}-3-methylurea] — 7-fold higher, 2.09 nM
- COc1ccccc1N1CCN(CC[C@@H](c2ccccc2F)[C@@H](C2CCCCC2)N(C)C(=O)N(C)C)CC1 (racemic) [Example 22, 1-{(RS,SR)-1-Cyclohexyl-2-(2-fluorophenyl)-4-[4-(2-methoxyphenyl)-piperazin-1-yl]butyl}-1,3,3-trimethylurea] — 4.1-fold higher, 1.24 nM
- CNC(=S)N[C@H](C1CCCCC1)[C@@H](CCN1CCN(c2ccccc2OC)CC1)c1ccccc1F (racemic) [Example 23, 1-{(RS,SR)-1-Cyclohexyl-2-(2-fluorophenyl)-4-[4-(2-methoxyphenyl)-piperazin-1-yl]butyl}-3-methylthiourea] — 1.9-fold higher, 0.58 nM
- CO/N=C(\C1CCCCC1)C(CCN1CCN(c2cccc3c2OCCO3)CC1)c1ccccc1C#N (racemic) [Example 26, (R,S)-2-{1′-{Cyclohexyl-[(E)-methoxyimino]methyl}-3-[4-(2,3-dihydrobenzo[1,4]dioxin-5-yl)-piperazin-1-yl]propyl}benzonitrile] — within 1.5-fold, 0.38 nM
- N[C@H](C1CCCCC1)[C@@H](CCN1CCN(c2cccc3c2OCCO3)CC1)c1ccccc1F (racemic) [Example 38, (RS,SR)-1-Cyclohexyl-4-[4-(2,3-dihydrobenzo[1,4]dioxin-5-yl)-piperazin-1-yl]-2-(2-fluorophenyl)butylamine] — 2.7-fold higher, 0.8 nM
- COc1ccccc1N1CCN(CC[C@@H](c2ccccc2F)[C@H](N)C2CCCCC2)CC1 (single isomer, unassigned) [Example 5aA, (1R,2S) or (1S,2R)-1-Cyclohexyl-2-(2-fluorophenyl)-4-[4-(2-methoxyphenyl)piperazin-1-yl]butylamine] — 2-fold higher, 0.6 nM
- COc1ccccc1N1CCN(CC[C@H](c2ccccc2F)[C@@H](N)C2CCCCC2)CC1 (single isomer, unassigned) [Example 5aB, (1S,2R) or (1R,2S)-1-Cyclohexyl-2-(2-fluorophenyl)-4-[4-(2-methoxyphenyl)piperazin-1-yl]butylamine] — 4-fold higher, 1.2 nM
- COc1ccccc1N1CCN(CC[C@H](c2ccccc2F)[C@@H](NC(=S)N(C)C)C2CCCCC2)CC1 (single isomer, unassigned) [Example 24B, 3-{(1S,2R) or (1R,2S)-1-Cyclohexyl-2-(2-fluorophenyl)-4-[4-(2-methoxyphenyl)piperazin-1-yl]butyl}-1,1-dimethylthiourea] — 14-fold higher, 4.2 nM
- CON=C(C1CCCCC1)C(CCN1CCN(c2ccccc2OC)CC1)c1ccccc1F (stereo not drawn) [Example 2, 1-Cyclohexyl-2-(2-fluorophenyl)-4-[4-(2-methoxyphenyl)-piperazin-1-yl]butan-1-one O-methyloxime] — 6.3-fold higher, 1.9 nM
- COc1ccccc1N1CCN(CCC(C(=NOC(C)=O)C2CCCCC2)c2ccccc2F)CC1 (stereo not drawn) [Example 3, 1-Cyclohexyl-2-(2-fluorophenyl)-4-[4-(2-methoxyphenyl)-piperazin-1-yl]butan-1-one O-acetyl oxime] — 2.9-fold higher, 0.87 nM
- COc1ccccc1N1CCN(CCC(c2ccccc2F)C(NC=O)C2CCCCC2)CC1 (stereo not drawn) [Example 6, N-{1-Cyclohexyl-2-(2-fluorophenyl)-4-[4-(2-methoxyphenyl)-piperazin-1-yl]butyl}formamide] — 4-fold higher, 1.2 nM
- CNC(C1CCCCC1)C(CCN1CCN(c2ccccc2OC)CC1)c1ccccc1F (stereo not drawn) [Example 10a] — 1.6-fold higher, 0.49 nM
- CNC(C1CCCCC1)C(CCN1CCN(c2ccccc2OC)CC1)c1ccccc1F (stereo not drawn) [Example 10b] — 4.7-fold higher, 1.41 nM
- COc1ccccc1N1CCN(CCC(c2ccccc2F)C(C2CCCCC2)N(Cc2ccco2)Cc2ccco2)CC1 (stereo not drawn) [Example 15] — 24-fold higher, 7.28 nM
- COc1ccccc1N1CCN(CCC(c2ccccc2F)C(NC(=O)N2CCOCC2)C2CCCCC2)CC1 (stereo not drawn) [Example 20, 1-{(RS,SR)-1-Cyclohexyl-2-(2-fluorophenyl)-4-[4-(2-methoxyphenyl)-piperazin-1-yl]butyl}morpholine-4-carboxamide] — 9.7-fold higher, 2.9 nM
- CC(=NO)C(CCN1CCN(c2cccc3c2OCCO3)CC1)c1ccccc1F (stereo not drawn) [Example 27, E(Z)-5-[4-(2,3-Dihydrobenzo[1,4]dioxin-5-yl)piperazin-1-yl]-3-(2-fluorophenyl)pentan-2-one oxime] — 5.9-fold higher, 1.77 nM
- CC(=NO)C(CCN1CCN(c2ccccc2OCC(F)(F)F)CC1)c1ccccc1F (stereo not drawn) [Example 31, E(Z)-3-(2-Fluorophenyl)-5-{4-[2-(2,2,2-trifluoroethoxy)phenyl]-piperazin-1-yl}pentan-2-one oxime] — 20-fold higher, 6.03 nM
- CON=C(C)C(CCN1CCN(c2ccccc2OCC(F)(F)F)CC1)c1ccccc1F (stereo not drawn) [Example 32, E(Z)-3-(2-Fluorophenyl)-5-{4-[2-(2,2,2-trifluoroethoxy)phenyl]-piperazin-1-yl}pentan-2-one O-methyloxime] — 7.5-fold higher, 2.24 nM
- O=CNC(C1CCCCC1)C(CCN1CCN(c2cccc3c2OCCO3)CC1)c1ccccc1F (stereo not drawn) [Example 37, N-[1-Cyclohexyl-4-[4-(2,3-dihydrobenzo[1,4]dioxin-5-yl)piperazin-1-yl]-2-(2-fluorophenyl)butyl]formamide] — 2.7-fold higher, 0.8 nM
- CNC(C1CCCCC1)C(CCN1CCN(c2cccc3c2OCCO3)CC1)c1ccccc1F (stereo not drawn) [Example 39, 1-Cyclohexyl-4-[4-(2,3-dihydrobenzo[1,4]dioxin-5-yl)piperazin-1-yl]-2-(2-fluorophenyl)butylmethylamine] — the same, 0.3 nM
- COc1ccc(Br)c(CN2CCN(CCC(c3ccccc3F)C(NC=O)C3CCCCC3)CC2)c1 (stereo not drawn) [Example 42, N-[4-[4-(2-Bromo-5-methoxybenzyl)piperazin-1-yl]-1-cyclohexyl-2-(2-fluorophenyl)butyl]formamide] — 1.7-fold higher, 0.5 nM
- CNC(C1CCCCC1)C(CCN1CCN(Cc2cc(OC)ccc2Br)CC1)c1ccccc1F (stereo not drawn) [Example 44, 4-[4-(2-Bromo-5-methoxybenzyl)piperazin-1-yl]-1-cyclohexyl-2-(2-fluorophenyl)butylmethylamine] — within 1.5-fold, 0.4 nM
